Data set [1] has as its system NFAT promoter luciferase reporter, Jurkat cells. Description: NFAT luciferase reporter assay in Jurkat cells. The format is cell-based, human. As to conditions: for IC50: 18 hours, read-out: NFAT–Luc IC50; for NFAT–Luc IC50 Fold Difference: CRV431 vs CsA. The protocol:
(§1) The luciferase reporter assays employed Jurkat cells stably transfected with gene constructs consisting of a luciferase gene plus human nuclear factor of activated T cells (NFAT) or interleukin-2 (IL-2) promoter elements (J1621 and J1651; Promega). The NFAT construct contained a DNA binding site only for NFAT, whereas the IL-2 construct contained binding sites for NFAT, nuclear factor κ-light-chain-enhancer of activated B cells, and activating protein-1 transcription factors. Cells were cultured in 96-well plates at 100,000 cells/well in RPMI 1640 medium (11875-093; Thermo Fisher) supplemented with 5% FBS (12483020; Thermo Fisher). Cells were activated either by precoating high protein-binding plates with 3 µg/ml anti-CD3 (UCHT clone) and anti-CD28 (CD28.2 clone) (BioLegend LEAF antibodies) or by adding phorbol myristate acetate (PMA; P8139; Sigma-Aldrich) to 15 ng/ml and A23187 ionophore (C7522; Sigma-Aldrich) to 0.75 µM. […] Cells were harvested after 18 hours of incubation, and luciferase was quantified with Promega Bio-Glo reagent (G7940; Promega) and measurement with a luminescence plate reader. Data were normalized to DMSO controls (100% stimulation) and to wells without antibody or PMA plus A23187 stimulation.
For orientation: Reporter assays use an easily measured gene product as a stand-in for the process of interest.

In data set [2] the test system is IL-2 promoter luciferase reporter, Jurkat cells. Description: IL-2 luciferase reporter assay in Jurkat cells. The format is cell-based, human. As to conditions: for IC50: 18 hours, read-out: IL-2–Luc IC50; for IL-2–Luc IC50 Fold Difference: CRV431 vs CsA. As to the method:
as §1

The nature of data set [3]: CRV431 concentrations in blood and liver, rats. The format is in vivo. The note with it: Rat.
Excerpt: Male and female Sprague–Dawley rats and male C57BL/6 mice from the carbon tetrachloride and NASH studies were used to evaluate CRV431 pharmacokinetics and distribution. […] Terminal whole blood and livers were collected and frozen until drug extraction. Liver samples were homogenized in PBS or 1% formic acid (0.1 g–0.4 g liver sample per ml solvent) with bead-based homogenizers (TissueLyser or Beadruptor). […] Liver CRV431 concentrations were normalized to the masses of the liver samples.
The next data set addresses BCRP (Homo sapiens, UniProt Q9UNQ0).
The mark [4] stands for this setting: CD3 + CD28 antibodies stimulation.

As usually defined, the IC50 is the concentration that gives 50% inhibition.

Like-named read-outs stand apart in the source and are kept apart here. Square brackets hold non-standard residues; d marks the D form. Peptide text beside a SMILES is read from it. NMeThr(4R-Me,4-(CH2)6NHAc) = CN[C@H](C(=O)O)[C@H](O)[C@H](C)CCCCCCNC(C)=O; NMeL = CN[C@@H](CC(C)C)C(=O)O; NMeV = CN[C@H](C(=O)O)C(C)C; dNMeA = CN[C@H](C)C(=O)O; Abu = CC[C@H](N)C(=O)O

Sequence of BCRP (Q9UNQ0 whole entry): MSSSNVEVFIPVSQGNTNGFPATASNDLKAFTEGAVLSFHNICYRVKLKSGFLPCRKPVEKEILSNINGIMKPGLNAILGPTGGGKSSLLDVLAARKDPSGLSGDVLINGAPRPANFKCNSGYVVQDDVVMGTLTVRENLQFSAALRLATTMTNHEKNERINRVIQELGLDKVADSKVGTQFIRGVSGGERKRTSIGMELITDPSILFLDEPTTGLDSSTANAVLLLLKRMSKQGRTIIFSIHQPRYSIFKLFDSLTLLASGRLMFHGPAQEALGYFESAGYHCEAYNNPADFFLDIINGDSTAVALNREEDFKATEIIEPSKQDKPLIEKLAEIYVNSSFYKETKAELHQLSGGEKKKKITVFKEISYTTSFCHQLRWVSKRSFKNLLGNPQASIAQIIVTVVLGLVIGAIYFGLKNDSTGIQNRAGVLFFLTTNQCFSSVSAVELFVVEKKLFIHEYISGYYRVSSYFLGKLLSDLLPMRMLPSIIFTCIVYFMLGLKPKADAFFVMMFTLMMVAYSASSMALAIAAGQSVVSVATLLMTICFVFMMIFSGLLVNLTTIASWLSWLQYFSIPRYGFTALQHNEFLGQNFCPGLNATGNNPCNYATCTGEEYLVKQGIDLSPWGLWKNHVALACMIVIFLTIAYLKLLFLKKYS
Description for BCRP: Briefly, PGP and breast cancer resistance protein inhibition was assessed by measuring the bidirectional transport of substrates across cell monolayers in transwell culture plates. Efflux ratios were represented as (apical-to-basal flux)/(basal-to-apical flux), and efflux ratios were plotted relative to CRV431 concentration to derive IC50 values. Bile salt export pump (BSEP) and multidrug resistance protein (MRP)1 inhibition was assessed by measuring substrate accumulation in membrane vesicles prepared from insect Sf9 cells and recombinantly expressing BSEP and MRP2 (Genomembrane). Inhibition of all other transporters was assessed by measuring substrate accumulation in cells recombinantly expressing the transporter. Known inhibitors of each transporter were used as positive controls for the assays. […] Specific, ATP-dependent uptake was determined by subtracting uptake in negative control vesicles and cells not expressing the transporters, and secondly by subtracting uptake in the absence of ATP in the assays. Specific, ATP-dependent uptake was plotted as a function of CRV431 concentrations and fitted to nonlinear regressions to obtain IC50 values.

On to `CC[C@@H]1NC(=O)[C@H]([C@H](O)[C@H](C)CCCCCCNC(C)=O)N(C)C(=O)[C@H](C(C)C)N(C)C(=O)[C@H](CC(C)C)N(C)C(=O)[C@H](CC(C)C)N(C)C(=O)[C@@H](C)NC(=O)[C@H](C)NC(=O)[C@H](CC(C)C)N(C)C(=O)[C@H](C(C)C)NC(=O)[C@H](CC(C)C)N(C)C(=O)[C@@H](C)N(C)C1=O` [CRV431] (cyclo(A[dA][NMeL][NMeL][NMeV][NMeThr(4R-Me,4-(CH2)6NHAc)][Abu][dNMeA][NMeL]V[NMeL])), for which the IC50 in data set [1] (setting [4]) came to 0.292 µM; in data set [1] (PMA + A23187 stimulation), 0.205 µM; in data set [2] (setting [4]), 0.311 µM; in data set [2] (PMA + A23187 stimulation), 0.3 µM; on BCRP it was 23 µM. Moreover, the “NFAT–Luc IC50 Fold Difference” value is on record as 65.4 in data set [1] (CD3 + CD28 antibodies) and 60.2 in data set [1] (PMA + A23187). In data set [1] (ratio of CRV431 and CsA IC50), the “times less potent than CsA on Jurkat–NFAT cells” value is on record as approximately 63 times. Also, the “IL-2–Luc IC50 Fold Difference” value in data set [2] (CD3 + CD28 antibodies) is on record as 34.6; in data set [2] (PMA + A23187), 36.9. Besides, the “times less potent than CsA on Jurkat–IL-2 cells” value in data set [2] (ratio of CRV431 and CsA IC50) was “approximately 35 times”. In addition, the “Liver:Blood [CRV431] Ratio” value in data set [3] (30 mg/kg per day oral, day 7, 12 hours post-dose) came out at 6.6 ± 1.1; in data set [3] (30 mg/kg per day oral, day 7, 24 hours post-dose), 4.8 ± 1.1; in data set [3] (250 mg/kg per day oral, day 7, 12 hours post-dose), 7.6 ± 1.8; in data set [3] (250 mg/kg per day oral, day 7, 24 hours post-dose) it was 5.3 ± 0.6.

The record behind these values is publication PMC6815936, “A Pan-Cyclophilin Inhibitor, CRV431, Decreases Fibrosis and Tumor Development in Chronic Liver Disease Models” (The Journal of Pharmacology and Experimental Therapeutics, 2019).
